Results published in US20100056627A1, “PHARMACEUTICAL COMPOSITIONS OF ALKYL GALLATES” (priority 2006, published 2010).

Assays:
herpes virus (HSV-1) = experiment: Virucidal activity against HSV-1 (Tables 14, 15, FIG. 5); assay type: cell-based
MRSA COL strain = experiment: Time required for killing bacteria, octyl gallate and propyl gallate (FIG. 1); assay type: cell-based, Staphylococcus aureus; conditions: concomitant use of octyl gallate and propyl gallate
From the text: FIG. 1 is a graph showing shortening of the time required for killing bacteria by the concomitant use of octyl gallate and propyl gallate against MRSA COL strain.

[1] = system: influenza virus in MDCK cells; assay type: cell-based
[2] = system: influenza virus A/Aichi (H3N2); experiment: Virucidal activity against influenza virus A/Aichi (H3N2) (Table 16); conditions: for No of plaques: Table 16
clinical isolate MRSA = experiment: Oxacillin MIC against MRSA with concomitant octyl gallate and short-chain alkyl gallate (β-lactam sensitivity, ILSMR effect); assay type: cell-based, Staphylococcus aureus; conditions: clinical isolate MRSA

Q: CCCCCCCCOC(=O)c1cc(O)c(O)c(O)c1 [octyl gallate] was tested. Which No of plaques (herpes virus (HSV-1); Table 14, octyl gallate 10 mg/L, J1816 30 mg/L, Na3citrate 0.90%) did it give?
A: 0

Q: What about the No of plaques (herpes virus (HSV-1); Table 14, octyl gallate 10 mg/L, propyl gallate 300 mg/L, J1816 120 mg/L, Na3citrate 0.90%) of the same molecule?
A: 0

Q: And the No of plaques (herpes virus (HSV-1); Table 14, octyl gallate 20 mg/L, J1816 60 mg/L, Na3citrate 0.90%)?
A: 0

Q: What about the No of plaques (herpes virus (HSV-1); Table 14, octyl gallate 20 mg/L, propyl gallate 300 mg/L, J1816 150 mg/L, Na3citrate 0.90%) of the same molecule?
A: 0

Q: What about the No of plaques (herpes virus (HSV-1); Table 14, octyl gallate 30 mg/L, J1816 90 mg/L, Na3citrate 0.90%) of the same molecule?
A: 0

Q: What about the No of plaques (herpes virus (HSV-1); Table 14, octyl gallate 30 mg/L, propyl gallate 300 mg/L, J1816 180 mg/L, Na3citrate 0.90%) of the same molecule?
A: 0

Q: And the No of plaques (herpes virus (HSV-1); Table 14, octyl gallate 60 mg/L, J1816 180 mg/L, Na3citrate 0.90%)?
A: 0

Q: What about the No of plaques (herpes virus (HSV-1); Table 14, octyl gallate 60 mg/L, J1816 180 mg/L, Na3citrate not given) of the same molecule?
A: 0

Q: What about the No of plaques (herpes virus (HSV-1); Table 14, octyl gallate 60 mg/L, propyl gallate 300 mg/L, J1816 270 mg/L, Na3citrate 0.90%) of the same molecule?
A: 0

Q: What about the No of plaques (herpes virus (HSV-1); Table 14, octyl gallate 100 mg/L, J1816 300 mg/L, Na3citrate 0.90%) of the same molecule?
A: 0

Q: And the No of plaques (herpes virus (HSV-1); Table 14, octyl gallate 100 mg/L, propyl gallate 300 mg/L, J1816 390 mg/L, Na3citrate 0.90%)?
A: 0

Q: And the No of plaques (herpes virus (HSV-1); Table 15, octyl gallate 10 mg/L, J1816 0, NaCitrate 0.90%)?
A: 48

Q: And the No of plaques (herpes virus (HSV-1); Table 15, octyl gallate 10 mg/L, propyl gallate 300 mg/L, J1816 0, NaCitrate 0.90%)?
A: 11

Q: What about the No of plaques (herpes virus (HSV-1); Table 15, octyl gallate 20 mg/L, J1816 0, NaCitrate 0.90%) of the same molecule?
A: 0

Q: What about the No of plaques (herpes virus (HSV-1); Table 15, octyl gallate 20 mg/L, propyl gallate 300 mg/L, J1816 0, NaCitrate 0.90%) of the same molecule?
A: 0

Q: And the No of plaques (herpes virus (HSV-1); Table 15, octyl gallate 30 mg/L, J1816 0, NaCitrate 0.90%)?
A: 0

Q: And the No of plaques (herpes virus (HSV-1); Table 15, octyl gallate 30 mg/L, propyl gallate 300 mg/L, J1816 0, NaCitrate 0.90%)?
A: 0

Q: What about the No of plaques (herpes virus (HSV-1); Table 15, octyl gallate 60 mg/L, J1816 0, NaCitrate 0.90%) of the same molecule?
A: 0

Q: What about the No of plaques (herpes virus (HSV-1); Table 15, octyl gallate 60 mg/L, propyl gallate 300 mg/L, J1816 0, NaCitrate 0.90%) of the same molecule?
A: 0

Q: What about the No of plaques (herpes virus (HSV-1); Table 15, octyl gallate 100 mg/L, J1816 0, NaCitrate 0.90%) of the same molecule?
A: 0

Q: What about the No of plaques (herpes virus (HSV-1); Table 15, octyl gallate 100 mg/L, propyl gallate 300 mg/L, J1816 0, NaCitrate 0.90%) of the same molecule?
A: 0

Q: And the “virucidal activity of octyl gallate against HSV-1” value (herpes virus (HSV-1); with 60 mg/L of propyl gallate, FIG. 5)?
A: marked reinforcement

Q: And the “time required for killing bacteria” value (MRSA COL strain)?
A: shortened to a large extent

Q: What about the “growth inhibition of influenza virus in MDCK cells” value [1] of the same molecule?
A: markedly reinforced

Q: What about the “growth of influenza virus in MDCK cells” value [1] of the same molecule?
A: inhibits the growth

Q: And the No of plaques ([2]; octyl gallate 20 mg/L, J1816 60 mg/L, NaCitrate 0.90%)?
A: 0

Q: And the No of plaques ([2]; octyl gallate 20 mg/L, propyl gallate 300 mg/L, J1816 150 mg/L, NaCitrate 0.90%)?
A: 0

Q: What about the No of plaques ([2]; octyl gallate 40 mg/L, J1816 20 mg/L, NaCitrate 0.90%) of the same molecule?
A: 0

Q: What about the No of plaques ([2]; octyl gallate 40 mg/L, propyl gallate 300 mg/L, J1816 210 mg/L, NaCitrate 0.90%) of the same molecule?
A: 0

Q: And the No of plaques ([2]; octyl gallate 60 mg/L, J1816 180 mg/L, NaCitrate 0.90%)?
A: 0

Q: What about the No of plaques ([2]; octyl gallate 60 mg/L, J1816 180 mg/L, NaCitrate not given) of the same molecule?
A: 0

Q: What about the No of plaques ([2]; octyl gallate 60 mg/L, propyl gallate 300 mg/L, J1816 270 mg/L, NaCitrate 0.90%) of the same molecule?
A: 0

Q: And the No of plaques ([2]; octyl gallate 80 mg/L, J1816 240 mg/L, NaCitrate 0.90%)?
A: 0

Q: What about the No of plaques ([2]; octyl gallate 80 mg/L, propyl gallate 300 mg/L, J1816 330 mg/L, NaCitrate 0.90%) of the same molecule?
A: 0

Q: What about the No of plaques ([2]; octyl gallate 100 mg/L, J1816 300 mg/L, NaCitrate 0.90%) of the same molecule?
A: 0

Q: What about the No of plaques ([2]; octyl gallate 100 mg/L, propyl gallate 300 mg/L, J1816 390 mg/L, NaCitrate 0.90%) of the same molecule?
A: 0

Q: And the “virucidal activity of octyl gallate against influenza virus A/Aichi (H3N2)” value ([2]; with propyl gallate)?
A: reinforced

Q: And the “octyl gallate concentration with growth inhibitory effect in all the bacterial strains with only octyl gallate” value (clinical isolate MRSA)?
A: 25 µg/mL

Q: And the “Concentration of octyl gallate for concomitant use necessary for obtaining oxacillin MIC not higher than 2 μg/mL, C50” value (clinical isolate MRSA; Isoamyl gallate 6.25)?
A: >12.5 µg/mL

Q: What about the “Concentration of octyl gallate for concomitant use necessary for obtaining oxacillin MIC not higher than 2 μg/mL, C100” value (clinical isolate MRSA; Isoamyl gallate 6.25) of the same molecule?
A: >12.5 µg/mL

Q: What about the “Concentration of octyl gallate for concomitant use necessary for obtaining oxacillin MIC not higher than 2 μg/mL, C50” value (clinical isolate MRSA; Isoamyl gallate 12.5) of the same molecule?
A: >12.5 µg/mL

Q: What about the “Concentration of octyl gallate for concomitant use necessary for obtaining oxacillin MIC not higher than 2 μg/mL, C100” value (clinical isolate MRSA; Isoamyl gallate 12.5) of the same molecule?
A: >12.5 µg/mL

Q: And the “Concentration of octyl gallate for concomitant use necessary for obtaining oxacillin MIC not higher than 2 μg/mL, C50” value (clinical isolate MRSA; Isoamyl gallate 25)?
A: 1.56 µg/mL

Q: And the “Concentration of octyl gallate for concomitant use necessary for obtaining oxacillin MIC not higher than 2 μg/mL, C100” value (clinical isolate MRSA; Isoamyl gallate 25)?
A: 1.56 µg/mL

Q: What about the “Concentration of octyl gallate for concomitant use necessary for obtaining oxacillin MIC not higher than 2 μg/mL, Range” value (clinical isolate MRSA; Isoamyl gallate 25) of the same molecule?
A: 1.56 µg/mL

Q: What about the “Concentration of octyl gallate for concomitant use necessary for obtaining oxacillin MIC not higher than 2 μg/mL, C50” value (clinical isolate MRSA; Propyl gallate 6.25) of the same molecule?
A: >12.5 µg/mL

Q: And the “Concentration of octyl gallate for concomitant use necessary for obtaining oxacillin MIC not higher than 2 μg/mL, C100” value (clinical isolate MRSA; Propyl gallate 6.25)?
A: >12.5 µg/mL

Q: And the “Concentration of octyl gallate for concomitant use necessary for obtaining oxacillin MIC not higher than 2 μg/mL, C50” value (clinical isolate MRSA; Propyl gallate 12.5)?
A: >12.5 µg/mL

Q: What about the “Concentration of octyl gallate for concomitant use necessary for obtaining oxacillin MIC not higher than 2 μg/mL, C100” value (clinical isolate MRSA; Propyl gallate 12.5) of the same molecule?
A: >12.5 µg/mL
